Measured values: US20210154173A1, “PHARMACEUTICAL COMPOSITION INCLUDING CLAVULANIC ACID AND VALPROIC ACID, METHOD FOR TREATMENT OF EPILEPSY SEIZURE, AND METHOD FOR TREATMENT OF EPILEPSY-ASSOCIATED MOTOR SYMPTOM AND COGNITIVE IMPAIRMENT” (Arthur Wisdom Technology Consultants Ltd., priority 2019, published 2021)

Assays:
Type in all cases: in vivo, Wistar male rats
[1] = system: epilepsy rats (PTZ induced); experiment: Passive avoidance test in shuttle box (trial E); details: after retention session of 24 hours, p<0.05 compared to group A0
Method: (§1) Wistar male rats (8 week-old) purchased from BioLASCO Taiwan Co., Ltd were used. The rats were housed in an animal room with constant temperature of 21-24° C., where was kept on a 12-hours light and 12-hours dark cycle. The rats were housed and kept on free diet and water.
(§2) 3 days before the trials, motor functions of the rats were tested by the rotarod test. On the 1st, 3rd, 5th, 7th, 9th, 11th and 13th days, pentylenetetrazol (PTZ, 35 mg/kg) was IP injected to the rats to induce epilepsy rats of groups A1-A5. On the 21st day, after administration of PTZ, seizure intensity of the rats was measured.
(§3) Referring to TABLE 1, on the 7th, 8th, 9th, 10th, 11th, 12th and 13th days, clavulanic acid and/or valproic acid was IP injected to the epilepsy rats of groups A2-A5. Saline (1 mL/kg/day) was IP injected to the normal rats of group A0, as well as the epilepsy rats of group A1.
On the 14th day, the motor function of the rats of groups A0-A5 was tested by rotarod test. […] The number of BrdU-positive cells in hippocampal dentate gyrus was calculated. […]
After the retention session for 24 hours, the rat R under the test was placed in the light chamber C1, and the guillotine door D was opened, as shown in FIG. 8b. The latency to entrance into the dark chamber C2 was recorded. […]

[2] = system: epilepsy rats (PTZ induced); experiment: BrdU staining of hippocampal dentate gyrus (trial F); details: 23rd day
Method: as §1, §2, §3
On the 14th day, the motor function of the rats of groups A0-A5 was tested by rotarod test. On the 15th, 16th and 17th days, the cognitive impairment on object recognition ability of the rats of groups A0-A5 was tested by object recognition test. On the 18th, 19th and 20th days, the cognitive impairment on memory of the rats of groups A0-A5 was tested by passive avoidance test. Moreover, on the 22nd day, BrdU (5′-bromo-2′-deoxyuridine) was IP injected to the rats of groups A0-A5 to label the proliferating cells. On the 23rd day, the rats of groups A0-A5 were sacrificed and the coronal brain sections were collected. The sections with hippocampal dentate gyrus were used for BrdU staining. The number of BrdU-positive cells in hippocampal dentate gyrus was calculated.
On the 22nd day, BrdU was IP injected to the rats to label the proliferating cells. On the 23rd day, the rats of groups A0-A5 were sacrificed and the coronal sections of the brain were collected. The sections with hippocampal dentate gyrus were used for BrdU staining.

[3] = system: epilepsy rats (PTZ induced); experiment: Seizure intensity by Racine score in PTZ-induced epilepsy rats (trial B); details: for seizure intensity (Racine score): 9th, 11th and 13th days
Method: Wistar male rats (8 week-old) purchased from BioLASCO Taiwan Co., Ltd were used. The rats were housed in an animal room with constant temperature of 21-24° C., where was kept on a 12-hours light and 12-hours dark cycle. The rats were housed and kept on free diet and water. 3 days before the trials, motor functions of the rats were tested by the rotarod test. On the 1st, 3rd, 5th, 7th, 9th, 11th and 13th days, pentylenetetrazol (PTZ, 35 mg/kg) was IP injected to the rats to induce epilepsy rats of groups A1-A5. On the 21st day, after administration of PTZ, seizure intensity of the rats was measured. Referring to TABLE 1, on the 7th, 8th, 9th, 10th, 11th, 12th and 13th days, clavulanic acid and/or valproic acid was IP injected to the epilepsy rats of groups A2-A5. Saline (1 mL/kg/day) was IP injected to the normal rats of group A0, as well as the epilepsy rats of group A1. On the 1st, 3rd, 5th, 7th, 9th, 11th, 13th and 21st days, the seizure intensity of the rats of groups A0-A5 was measured by Racine score. The seizure intensity was scored according to Racine's scale as follows: 0=normal, nonepileptic activity, 1=mouth and facial movements, hyperactivity, grooming, sniffing, scratching, wet dog shakes, 2=head nodding, staring, tremor, 3=forelimb clonus, forelimb extension, 4=rearing, salivating, tonic clonic activity and 5=falling, status epilepticus.

[4] = system: epilepsy rats (PTZ induced); experiment: Rotarod test of motor function (trial C); details: 14th day, 25 rpm for 3 minutes
Method: Wistar male rats (8 week-old) purchased from BioLASCO Taiwan Co., Ltd were used. The rats were housed in an animal room with constant temperature of 21-24° C., where was kept on a 12-hours light and 12-hours dark cycle. The rats were housed and kept on free diet and water. 3 days before the trials, motor functions of the rats were tested by the rotarod test. On the 1st, 3rd, 5th, 7th, 9th, 11th and 13th days, pentylenetetrazol (PTZ, 35 mg/kg) was IP injected to the rats to induce epilepsy rats of groups A1-A5. On the 21st day, after administration of PTZ, seizure intensity of the rats was measured. Referring to TABLE 1, on the 7th, 8th, 9th, 10th, 11th, 12th and 13th days, clavulanic acid and/or valproic acid was IP injected to the epilepsy rats of groups A2-A5. Saline (1 mL/kg/day) was IP injected to the normal rats of group A0, as well as the epilepsy rats of group A1. On the 14th day, the motor function of the rats of groups A0-A5 was tested by rotarod test. On the 15th, 16th and 17th days, the cognitive impairment on object recognition ability of the rats of groups A0-A5 was tested by object recognition test. On the 18th, 19th and 20th days, the cognitive impairment on memory of the rats of groups A0-A5 was tested by passive avoidance test. Moreover, on the 22nd day, BrdU (5′-bromo-2′-deoxyuridine) was IP injected to the rats of groups A0-A5 to label the proliferating cells. On the 23rd day, the rats of groups A0-A5 were sacrificed and the coronal brain sections were collected. The sections with hippocampal dentate gyrus were used for BrdU staining. The number of BrdU-positive cells in hippocampal dentate gyrus was calculated. Next, motor function of the rats of groups A0-A5 was tested by rotarod test. Specifically, in the training session, the normal rat that had not yet been induced as epilepsy rat by PTZ was used as the rat R under the test. […] 3 trials were performed with a cutoff of 5 minutes. On the 14th day, the rats of groups A0-A5 were used as the rats R under the test. […]

[5] = system: epilepsy rats (PTZ induced); experiment: Object recognition test (trial D); details: 17th day
Method: as §1, §2, §3
On the 14th day, the motor function of the rats of groups A0-A5 was tested by rotarod test. On the 15th, 16th and 17th days, the cognitive impairment on object recognition ability of the rats of groups A0-A5 was tested by object recognition test. On the 18th, 19th and 20th days, the cognitive impairment on memory of the rats of groups A0-A5 was tested by passive avoidance test. […] The number of BrdU-positive cells in hippocampal dentate gyrus was calculated. […]
On the 17th day, during the test session, the rat R under the test was placed in the open box, shown as FIG. 6a, and the time spent exploring the object O1 (TO1) and the total time spent exploring the objects O1, O2 & O3 (TO1+O2+O3) were recorded, respectively. The percentage of the exploration time spent on the object O1 was calculated as (TO1/TO1+O2+O3)*100%. […] The time spent exploring the novel object O4 (TO4) and the total time spent exploring the objects O2 & O3 and the novel object O4 (TO2+O3+O4) were respectively recorded, and the percentage of the exploration time spent on the novel object O4 was calculated as […].

[6] = group A4: valproic acid 50 mg/kg/day IP

## O=C(O)[C@H]1/C(=C/CO)O[C@@H]2CC(=O)N21 [clavulanic acid]
[1]; group A2: clavulanic acid 1 mg/kg/day IP
  latency to entrance into the dark chamber C2: also decreases
[2]; group A2: clavulanic acid 1 mg/kg/day IP, no difference compared to group A0
  number of BrdU-positive cells in hippocampal dentate gyrus: can recover the number of BrdU-positive cells to normal
[2]; group A3: clavulanic acid 10 mg/kg/day IP, no difference compared to group A0
  number of BrdU-positive cells in hippocampal dentate gyrus: can recover the number of BrdU-positive cells to normal
[3]; group A2: clavulanic acid 1 mg/kg/day IP days 7-13
  seizure intensity (Racine score): 3-4
[3]; group A3: clavulanic acid 10 mg/kg/day IP days 7-13, not treated days 14-20, 21st day, compared to group A1 (saline)
  seizure intensity (Racine score) after drug holiday: still significantly lower
[3]; group A3: clavulanic acid 10 mg/kg/day IP days 7-13
  seizure intensity (Racine score): decreases
[4]; group A2: clavulanic acid 1 mg/kg/day IP, no difference between group A0
  riding time on rotarod: significantly increase the riding time
[4]; group A3: clavulanic acid 10 mg/kg/day IP, p<0.05 compared to group A1
  riding time on rotarod: significantly increase the riding time
[5]; group A2: clavulanic acid 1 mg/kg/day IP, p<0.01
  percentage of time exploring novel object O4 versus object O1: can recognize the novel object O4
[5]; group A3: clavulanic acid 10 mg/kg/day IP, p<0.05
  percentage of time exploring novel object O4 versus object O1: can recognize the novel object O4

## CCCC(CCC)C(=O)O [valproic acid]
[1]; [6]
  latency to entrance into the dark chamber C2: cannot improve the cognitive impairment on memory
[2]; group A4: valproic acid 50 mg/kg/day IP, p<0.05 compared to A0
  number of BrdU-positive cells in hippocampal dentate gyrus: cannot improve the defect on neurogenesis
[3]; group A4: valproic acid 50 mg/kg/day IP days 7-13
  seizure intensity (Racine score): did not decrease
[4]; group A4: valproic acid 50 mg/kg/day IP, p<0.001 compared to group A0
  riding time on rotarod: cannot improve the motor coordination and balance problems
[5]; [6]
  percentage of time exploring novel object O4 versus object O1: cannot improve the cognitive decline on recognition ability
